Laboratory results reported in PubChem BioAssay AID328 (DTP/NCI, 2004).
Several values for one entry are separate records, joined by “and”; a condition that tells them apart may be missing. Identical values can stand only once. Inconclusive results and toxic doses are left out.

Tested on: BDF1 mice, P388 leukemia ip, median survival T/C
Experiment: NCI In Vivo Anticancer Drug Screen. Data for tumor model P388 Leukemia (intraperitoneal) in B6D2F1 (BDF1) mice
Conditions: endpoint: median survival time, higher = longer survival
How it was run: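 Reported as T/C, where T is the survival measurement in dosed animals and C the same measurement in vehicle controls.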

[1] = dose: 100.0 mg/kg/injection, schedule: Q04DX003 (ip), vehicle: Klucel (hydroxypropylcellulose) (HPC)
[2] = dose: 200.0 mg/kg/injection, schedule: Q04DX003 (ip), vehicle: Klucel (hydroxypropylcellulose) (HPC)
[3] = dose: 400.0 mg/kg/injection, schedule: Q04DX003 (ip), vehicle: Klucel (hydroxypropylcellulose) (HPC)
[4] = dose: 25.0 mg/kg/injection, schedule: Q01DX009 (ip), vehicle: saline with Tween-80
[5] = dose: 50.0 mg/kg/injection, schedule: Q01DX009 (ip), vehicle: saline with Tween-80
[6] = dose: 100.0 mg/kg/injection, schedule: Q04DX003 (ip), vehicle: saline with Tween-80
[7] = dose: 50.0 mg/kg/injection, schedule: Q01DX009 (ip), vehicle: Klucel (hydroxypropylcellulose) (HPC)
[8] = dose: 100.0 mg/kg/injection, schedule: Q01DX009 (ip), vehicle: saline with Tween-80
[9] = dose: 200.0 mg/kg/injection, schedule: Q01DX009 (ip), vehicle: saline with Tween-80

For COc1ccc2cc1Oc1ccc(cc1)CC1=NCCc3cc(OC)c(OC)c(c31)Oc1cc3c(cc1OC)CCN(C)C3C2 (centres undefined), the T/C (dose: 67.0 mg/kg/injection, schedule: Q01DX010 (ip), vehicle: carboxymethylcellulose (CMC)) was 86 % of control and the T/C (dose: 100.0 mg/kg/injection, schedule: Q01DX010 (ip), vehicle: carboxymethylcellulose (CMC)) was 86 % of control.
With CN1CCN=C1c1ccc(NC(=O)c2ccc(C(=O)Nc3ccc(C4=NCCN4C)cc3)c(N)c2)cc1 the T/C (dose: 0.5 mg/kg/injection, schedule: Q01DX009 (ip), vehicle: saline with Tween-80) was 150 % of control, the T/C (dose: 1.0 mg/kg/injection, schedule: Q01DX009 (ip), vehicle: saline with Tween-80) was 154 % of control and the T/C (dose: 2.0 mg/kg/injection, schedule: Q01DX009 (ip), vehicle: saline with Tween-80) was 181 % of control. For the same compound, the T/C (dose: 2.0 mg/kg/injection, schedule: Q01DX009 (ip), vehicle: saline) was 154 % of control and the T/C (dose: 3.0 mg/kg/injection, schedule: Q01DX009 (ip), vehicle: saline) was 166 % of control.
O=[N+]([O-])c1ccc(C(Br)C(Br)c2ccccc2Br)cc1 (centres undefined) was tested, and the T/C [1] was 100 % of control, the T/C [2] was 95 % of control and the T/C [3] was 90 % of control.
c1ccc(C2OC3(CCCCC3)C[N+]23CCCC3)cc1 (centres undefined) was tested, and the T/C [4] was 95 % of control, the T/C [5] was 113 % of control and the T/C (dose: 50.0 mg/kg/injection, schedule: Q04DX003 (ip), vehicle: saline with Tween-80) was 100 % of control. For the same compound, the T/C [6] was 87 % of control.
In the case of COc1cc(C(=O)N2CC2)cc(OC)c1OC, the T/C (dose: 3.12 mg/kg/injection, schedule: Q01DX009 (ip), vehicle: water) is reported as 108 % of control, the T/C (dose: 6.25 mg/kg/injection, schedule: Q01DX009 (ip), vehicle: water) is reported as 90 % of control and the T/C (dose: 12.5 mg/kg/injection, schedule: Q01DX009 (ip), vehicle: water) is reported as 99 % of control. The T/C (dose: 25.0 mg/kg/injection, schedule: Q01DX009 (ip), vehicle: water) was 101 % of control and the T/C (dose: 50.0 mg/kg/injection, schedule: Q01DX009 (ip), vehicle: water) was 96 % of control.
In the case of COc1ccc(/C=C2\N=C(c3ccccc3)OC2=O)cc1OC, the T/C (dose: 100.0 mg/kg/injection, schedule: Q01DX001 (ip), vehicle: saline) is reported as 90 % of control, the T/C (dose: 200.0 mg/kg/injection, schedule: Q01DX001 (ip), vehicle: saline) is reported as 104 % of control and the T/C (dose: 400.0 mg/kg/injection, schedule: Q01DX001 (ip), vehicle: saline) is reported as 104 % of control.
In the case of CCOC(=O)C(=O)NCc1cnccn1, the T/C (dose: 100.0 mg/kg/injection, schedule: Q04DX003 (ip), vehicle: water) is reported as 104 % of control, the T/C (dose: 200.0 mg/kg/injection, schedule: Q04DX003 (ip), vehicle: water) is reported as 104 % of control and the T/C (dose: 400.0 mg/kg/injection, schedule: Q04DX003 (ip), vehicle: water) is reported as 100 % of control.
With O=C(OC1C=CCC1)c1ccc([N+](=O)[O-])cc1 (centres undefined) the T/C [1] was 100 % of control, the T/C [2] was 100 % of control and the T/C [3] was 100 % of control.
With CCC(C)C1NC(=O)C(NC(=O)c2c3nc4c(C(=O)NC5C(=O)NC(C(C)CC)C(=O)N6CCCC6C(=O)N(C)CC(=O)N(C)C(C(C)C)C(=O)OC5C)cc(N)c(C)c4oc-3c(C)c(=O)c2N)C(C)OC(=O)C(C(C)C)N(C)C(=O)CN(C)C(=O)C2CCCN2C1=O (centres undefined) the T/C (dose: 0.15 mg/kg/injection, schedule: Q04DX003 (ip), vehicle: saline + alcohol) was 206 % of control, the T/C (dose: 0.3 mg/kg/injection, schedule: Q04DX003 (ip), vehicle: saline + alcohol) was 227 % of control and the T/C (dose: 0.6 mg/kg/injection, schedule: Q04DX003 (ip), vehicle: saline + alcohol) was 255 % of control and 312 % of control. For the same compound, the T/C (dose: 1.2 mg/kg/injection, schedule: Q04DX003 (ip), vehicle: saline + alcohol) was 197 % of control, the T/C (dose: 25.0 micrograms/kg/injection, schedule: Q01DX009 (ip), vehicle: saline + alcohol) was 190 % of control and the T/C (dose: 50.0 micrograms/kg/injection, schedule: Q01DX009 (ip), vehicle: saline + alcohol) was 236 % of control. The T/C (dose: 100.0 micrograms/kg/injection, schedule: Q01DX009 (ip), vehicle: saline + alcohol) was 232 % of control, the T/C (dose: 200.0 micrograms/kg/injection, schedule: Q01DX009 (ip), vehicle: saline + alcohol) was 291 % of control and the T/C (dose: 400.0 micrograms/kg/injection, schedule: Q01DX009 (ip), vehicle: saline + alcohol) was 86 % of control.
For O=C1CC(c2ccc(OCN(CCCl)CCCl)cc2)CC(=O)C1CN(CCCl)CCCl (centres undefined), the T/C (dose: 0.5 mg/kg/injection, schedule: Q01DX009 (ip), vehicle: Klucel (hydroxypropylcellulose) (HPC)) was 124 % of control and the T/C (dose: 4.0 mg/kg/injection, schedule: Q01DX009 (ip), vehicle: Klucel (hydroxypropylcellulose) (HPC)) was 160 % of control.
Nc1nc(N)c(Nc2ccc(Cl)cc2)c(Cl)n1 was tested, and the T/C (dose: 100.0 mg/kg/injection, schedule: Q01DX001 (ip), vehicle: saline with Tween-80) was 88 % of control and the T/C (dose: 200.0 mg/kg/injection, schedule: Q01DX001 (ip), vehicle: saline with Tween-80) was 89 % of control.
In the case of CCC(=O)O[C@H]1CC[C@H]2[C@@H]3CCC4=CC(=O)CC[C@]4(C)[C@H]3CC[C@]12C, the T/C (dose: 100.0 mg/kg/injection, schedule: Q01DX009 (sc), vehicle: steriod suspending solution) is reported as 104 % of control, the T/C (dose: 100.0 mg/kg/injection, schedule: Q04DX003 (sc), vehicle: steriod suspending solution) is reported as 105 % of control and the T/C (dose: 200.0 mg/kg/injection, schedule: Q01DX009 (sc), vehicle: steriod suspending solution) is reported as 87 % of control. For the same compound, the T/C (dose: 200.0 mg/kg/injection, schedule: Q04DX003 (sc), vehicle: steriod suspending solution) was 100 % of control, the T/C (dose: 400.0 mg/kg/injection, schedule: Q01DX009 (sc), vehicle: steriod suspending solution) was 91 % of control and the T/C (dose: 400.0 mg/kg/injection, schedule: Q04DX003 (sc), vehicle: steriod suspending solution) was 100 % of control.
In the case of CN(C)CC1CCC/C(=C\C=C\c2ccccc2)C1=O (centres undefined), the T/C (dose: 4.37 mg/kg/injection, schedule: Q01DX009 (ip), vehicle: Klucel (hydroxypropylcellulose) (HPC)) is reported as 104 % of control and 113 % of control, the T/C (dose: 8.75 mg/kg/injection, schedule: Q01DX009 (ip), vehicle: Klucel (hydroxypropylcellulose) (HPC)) is reported as 109 % of control and the T/C (dose: 17.5 mg/kg/injection, schedule: Q01DX009 (ip), vehicle: Klucel (hydroxypropylcellulose) (HPC)) is reported as 109 % of control and 118 % of control. For the same compound, the T/C (dose: 35.0 mg/kg/injection, schedule: Q01DX009 (ip), vehicle: Klucel (hydroxypropylcellulose) (HPC)) was 120 % of control, the T/C [7] was 120 % of control and the T/C (dose: 75.0 mg/kg/injection, schedule: Q01DX009 (ip), vehicle: Klucel (hydroxypropylcellulose) (HPC)) was 120 % of control.
For O=[N+]([O-])c1ccc(/C=C/C=C/c2ccc(Cl)cc2Cl)cc1, the T/C [7] was 104 % of control, the T/C (dose: 100.0 mg/kg/injection, schedule: Q01DX009 (ip), vehicle: Klucel (hydroxypropylcellulose) (HPC)) was 113 % of control and the T/C [1] was 104 % of control. For the same compound, the T/C (dose: 200.0 mg/kg/injection, schedule: Q01DX009 (ip), vehicle: Klucel (hydroxypropylcellulose) (HPC)) was 90 % of control, the T/C [2] was 95 % of control and the T/C [3] was 91 % of control.
O=C(Nc1ccc(F)cc1)C12CC3CC(CC(C3)C1)C2 was tested, and the T/C [5] was 92 % of control, the T/C [8] was 92 % of control and the T/C [9] was 92 % of control.
S=C1Cc2[nH]c(=S)sc(=S)c2C(=S)N1 was tested, and the T/C (dose: 6.25 mg/kg/injection, schedule: Q01DX009 (ip), vehicle: saline with Tween-80) was 95 % of control, the T/C (dose: 12.5 mg/kg/injection, schedule: Q01DX009 (ip), vehicle: saline with Tween-80) was 99 % of control and the T/C [4] was 101 % of control.
In the case of Cc1ccc(NC(=S)NC(=O)c2ccco2)cc1Cl, the T/C [1] is reported as 100 % of control, the T/C [2] is reported as 120 % of control and the T/C [3] is reported as 90 % of control.
For C[N+](C)(Cn1nc(Cl)c2cc([N+](=O)[O-])ccc21)Cn1nc(Cl)c2cc([N+](=O)[O-])ccc21, the T/C [6] was 115 % of control and the T/C (dose: 200.0 mg/kg/injection, schedule: Q04DX003 (ip), vehicle: saline with Tween-80) was 153 % of control.
O=[N+]([O-])c1cccc(N2CN(c3cccc([N+](=O)[O-])c3)CN(c3cccc([N+](=O)[O-])c3)C2)c1 was tested, and the T/C [5] was 116 % of control, the T/C [8] was 106 % of control and the T/C [9] was 100 % of control.
In the case of CCCCCCC(O)CCCCCCCCCCC(=O)O (centres undefined), the T/C [8] is reported as 95 % of control, the T/C [9] is reported as 95 % of control and the T/C (dose: 400.0 mg/kg/injection, schedule: Q01DX009 (ip), vehicle: saline with Tween-80) is reported as 100 % of control.
CCN(CC)CCOC(=O)C(c1ccccc1)C1(O)CCCC(C)C1 (centres undefined) was tested, and the T/C (dose: 50.0 mg/kg/injection, schedule: Q01DX005 (ip), vehicle: saline) was 98 % of control, the T/C (dose: 100.0 mg/kg/injection, schedule: Q01DX005 (ip), vehicle: saline) was 90 % of control and the T/C (dose: 200.0 mg/kg/injection, schedule: Q01DX005 (ip), vehicle: saline) was 110 % of control.
